Reference: patent publication US20260285850A1, “SUBSTITUTED OXAZOLIDINONES AND IMIDAZOLINONES AS HERBICIDES” (FMC CORPORATION, priority 2023, published 2026)

Key:
Type in all cases: in vivo
[1] = system: barnyardgrass (Echinochloa crus-galli); test: Test A preemergence soil spray, visual injury rating 0-100; conditions: 10 days
Outline: (§1)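 Plants in a loam and sand soil blend were treated with each test chemical, in a non-phytotoxic solvent system including surfactant, either sprayed on seeded soil before emergence or applied after emergence at the one- to two-leaf stage. Ten days later in the greenhouse, plants were compared with untreated controls and visually rated from 0 (no effect) to 100 (complete control).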

[2] = system: blackgrass (Alopecurus myosuroides); test: as above; conditions: 10 days
Outline: as §1

corn (Zea mays) [3] = test: as above; conditions: 10 days
Outline: as §1

[4] = system: green foxtail (Setaria viridis); test: as above; conditions: 10 days
Outline: as §1

kochia (Bassia scoparia) [5] = test: as above; conditions: 10 days
Outline: as §1

[6] = system: oat, wild (wild oat, Avena fatua); test: as above; conditions: 10 days
Outline: as §1

[7] = system: palmer (palmer amaranth, palmer pigweed, Amaranthus palmeri); test: as above; conditions: 10 days
Outline: as §1

[8] = system: ragweed (common ragweed, Ambrosia artemisiifolia); test: as above; conditions: 10 days
Outline: as §1

[9] = system: ryegrass, Italian (italian ryegrass, Lolium multiflorum); test: as above; conditions: 10 days
Outline: as §1

soybean (Glycine max) [10] = test: as above; conditions: 10 days
Outline: as §1

[11] = system: wheat (Triticum aestivum); test: as above; conditions: 10 days
Outline: as §1

[12] = system: barnyardgrass (Echinochloa crus-galli); test: Test A postemergence application, visual injury rating 0-100
Outline: as §1

[13] = system: blackgrass (Alopecurus myosuroides); test: as above
Outline: as §1

corn (Zea mays) [14] = test: as above
Outline: as §1

[15] = system: galium (catchweed bedstraw, Galium aparine); test: as above
Outline: as §1

[16] = system: green foxtail (Setaria viridis); test: as above
Outline: as §1

kochia (Bassia scoparia) [17] = test: as above
Outline: as §1

[18] = system: oat, wild (wild oat, Avena fatua); test: as above
Outline: as §1

[19] = system: palmer (palmer amaranth, palmer pigweed, Amaranthus palmeri); test: as above
Outline: as §1

[20] = system: ragweed (common ragweed, Ambrosia artemisiifolia); test: as above
Outline: as §1

[21] = system: ryegrass, Italian (italian ryegrass, Lolium multiflorum); test: as above
Outline: as §1

soybean (Glycine max) [22] = test: as above
Outline: as §1

[23] = system: wheat (Triticum aestivum); test: as above
Outline: as §1

[24] = system: barnyardgrass (Echinochloa crusgalli); test: Test B flooded paddy test, visual plant response rating 0-100; conditions: 250 g ai/ha, Flood, applied to paddy water, evaluated after 13 days
Outline: (§2)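 In this flooded assay, 2-leaf seedlings received compound through the water layer, kept at 3 cm over the soil. Plants were held 13 days in a greenhouse and then visually compared with control pots.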

[25] = system: ducksalad (Heteranthera limosa); test: as above; conditions: 250 g ai/ha, Flood, applied to paddy water, evaluated after 13 days
Outline: as §2

rice (Oryza sativa) = test: as above; conditions: 250 g ai/ha, Flood, applied to paddy water, evaluated after 13 days
Outline: as §2

[26] = system: sedge, umbrella (small-flower umbrella sedge, Cyperus difformis); test: as above; conditions: 250 g ai/ha, Flood, applied to paddy water, evaluated after 13 days
Outline: as §2

[27] = 62 g ai/ha, 0 = no effect, 100 = complete control
[28] = 62 g ai/ha, postemergence, 10 days, 0 = no effect, 100 = complete control
[29] = Postemergence, 16 g ai/ha, greenhouse 10 days, 0 no effect, 100 complete control

COC(=O)C1C=CC(NC(=O)C2(C(F)(F)F)CN(c3cc(F)c(F)c(F)c3)C(=O)O2)C1 (mixture of isomers) [Compound 162]
Barnyardgrass plant response rating ([1]; 16 g ai/ha, 0 to 100 scale): 0
Barnyardgrass plant response rating (0-100) [1, 27]: 80
Blackgrass plant response rating ([2]; 16 g ai/ha, 0 to 100 scale): 0
Blackgrass plant response rating (0-100) [2, 27]: 60
Corn plant response rating (corn (Zea mays) [3]; 16 g ai/ha, 0 to 100 scale): 0
Corn plant response rating (0-100) (corn (Zea mays) [3]; [27]): 70
Foxtail, Green plant response rating ([4]; 16 g ai/ha, 0 to 100 scale): 0
Foxtail, Green plant response rating (0-100) [4, 27]: 30
Kochia plant response rating (kochia (Bassia scoparia) [5]; 16 g ai/ha, 0 to 100 scale): 0
Kochia plant response rating (0-100) (kochia (Bassia scoparia) [5]; [27]): 40
Oat, Wild plant response rating ([6]; 16 g ai/ha, 0 to 100 scale): 20
Oat, Wild plant response rating (0-100) [6, 27]: 90
Pigweed, Palmer plant response rating ([7]; 16 g ai/ha, 0 to 100 scale): 0
Pigweed, Palmer plant response rating (0-100) [7, 27]: 30
Ragweed plant response rating ([8]; 16 g ai/ha, 0 to 100 scale): 0
Ragweed plant response rating (0-100) [8, 27]: 10
Ryegrass, Italian plant response rating ([9]; 16 g ai/ha, 0 to 100 scale): 0
Ryegrass, Italian plant response rating (0-100) [9, 27]: 80
Soybean plant response rating (soybean (Glycine max) [10]; 16 g ai/ha, 0 to 100 scale): 10
Soybean plant response rating (0-100) (soybean (Glycine max) [10]; [27]): 50
Wheat plant response rating ([11]; 16 g ai/ha, 0 to 100 scale): 20
Wheat plant response rating (0-100) [11, 27]: 90
Barnyardgrass plant response rating (0-100) [12, 28]: 100
Barnyardgrass plant response rating (0 to 100 scale) [12, 29]: 50
Blackgrass plant response rating (0-100) [13, 28]: 100
Blackgrass plant response rating (0 to 100 scale) [13, 29]: 90
Corn plant response rating (0-100) (corn (Zea mays) [14]; [28]): 100
Corn plant response rating (0 to 100 scale) (corn (Zea mays) [14]; [29]): 100
Galium plant response rating (0-100) [15, 28]: 60
Galium plant response rating (0 to 100 scale) [15, 29]: 30
Foxtail, Green plant response rating (0-100) [16, 28]: 80
Foxtail, Green plant response rating (0 to 100 scale) [16, 29]: 30
Kochia plant response rating (0-100) (kochia (Bassia scoparia) [17]; [28]): 70
Kochia plant response rating (0 to 100 scale) (kochia (Bassia scoparia) [17]; [29]): 0
Oat, Wild plant response rating (0-100) [18, 28]: 90
Oat, Wild plant response rating (0 to 100 scale) [18, 29]: 80
Pigweed, Palmer plant response rating (0-100) [19, 28]: 50
Pigweed, Palmer plant response rating (0 to 100 scale) [19, 29]: 10
Ragweed plant response rating (0-100) [20, 28]: 40
Ragweed plant response rating (0 to 100 scale) [20, 29]: 20
Ryegrass, Italian plant response rating (0-100) [21, 28]: 70
Ryegrass, Italian plant response rating (0 to 100 scale) [21, 29]: 30
Soybean plant response rating (0-100) (soybean (Glycine max) [22]; [28]): 70
Soybean plant response rating (0 to 100 scale) (soybean (Glycine max) [22]; [29]): 60
Wheat plant response rating (0-100) [23, 28]: 90
Wheat plant response rating (0 to 100 scale) [23, 29]: 90
Plant response rating, Barnyardgrass (0 to 100 scale, 0 is no effect and 100 is complete control) [24]: 20
Plant response rating, Ducksalad (0 to 100 scale, 0 is no effect and 100 is complete control) [25]: 65
Plant response rating, Rice (0 to 100 scale, 0 is no effect and 100 is complete control) (rice (Oryza sativa)): 0
Plant response rating, Sedge, Umbrella (0 to 100 scale, 0 is no effect and 100 is complete control) [26]: 0
